From patent US8697727B2, “N-substituted-heterocycloalkyloxybenzamide compounds and methods of use” (Rigel Pharmaceuticals, Inc., priority 2006, dated 2014)

Test system: AMPK
Assay: AMPK activation, enzyme-linked immunosorbent assay
Format: cell-based
In short: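 Cell-based assay in which AMPK activity was measured as the relative concentration of phosphorylated acetyl-CoA carboxylase, a product of AMPK, by enzyme-linked immunosorbent assay. The endpoint is the EC50 for AMPK activation of each compound. EC50 values were reported in ranges: less than 1 μM, 1-10 μM, 10-20 μM, 20-50 μM, 50-100 μM, and >100 μM.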

O=C(NC1CCN(Cc2ccc(F)cc2)CC1)c1ccc(OC2CCN(Cc3ccc(Cl)cc3)CC2)c(Cl)c1 [Compound 66, 3-chloro-4-(1-(4-chlorobenzyl)piperidin-4-yloxy)-N-(1-(4-fluorobenzyl)piperidin-4-yl)benzamide] and Cc1ccc(CN2CCC(Oc3ccc(C(=O)NC4CCN(Cc5ccc(F)cc5)CC4)cc3Cl)CC2)cc1 [Compound 68, 3-chloro-N-(1-(4-fluorobenzyl)piperidin-4-yl)-4-(1-(4-methylbenzyl)piperidin-4-yloxy)benzamide] cannot be ordered by EC50: < 1 µM for the first, < 1 µM for the second.

N#Cc1ccc(CN2CCC(Oc3ccc(C(=O)NC4CCN(Cc5ccccc5)CC4)cc3Cl)CC2)cc1 [Compound 67, N-(1-benzylpiperidin-4-yl)-3-chloro-4-(1-(4-cyanobenzyl)piperidin-4-yloxy)benzamide] and N#Cc1ccc(CN2CCC(Oc3c(Cl)cc(C(=O)NC4CCN(Cc5ccccc5)CC4)cc3Cl)CC2)cc1 [Compound 77, N-(1-benzylpiperidin-4-yl)-3,5-dichloro-4-(1-(4-cyanobenzyl)piperidin-4-yloxy)benzamide] cannot be ordered by EC50: < 1 µM for the first, < 1 µM for the second.

O=C(NC1CCN(Cc2ccccc2)CC1)c1ccc(OC2CCN(Cc3ccc(F)c(F)c3)CC2)c(F)c1 [Compound 69, N-(1-benzylpiperidin-4-yl)-4-(1-(3,4-difluorobenzyl)piperidin-4-yloxy)-3-fluorobenzamide] and O=C(NC1CCN(Cc2ccccc2)CC1)c1ccc(OC2CCN(Cc3ccc(F)c(F)c3)CC2)c(Cl)c1 [Compound 74, N-(1-benzylpiperidin-4-yl)-3-chloro-4-(1-(3,4-difluorobenzyl)piperidin-4-yloxy)benzamide] cannot be ordered by EC50: < 1 µM for the first, < 1 µM for the second.

N#Cc1ccc(CN2CCC(Oc3ccc(C(=O)NC4CCN(Cc5ccc(Cl)cc5)CC4)cc3F)CC2)cc1 [Compound 70, N-(1-(4-chlorobenzyl)piperidin-4-yl)-4-(1-(4-cyanobenzyl)piperidin-4-yloxy)-3-fluorobenzamide] and O=C(NC1CCN(Cc2ccc(Cl)cc2)CC1)c1ccc(OC2CCN(Cc3ccc(Cl)cc3)CC2)c(F)c1 [Compound 72, N-(1-(4-chlorobenzyl)piperidin-4-yl)-4-(1-(4-chlorobenzyl)piperidin-4-yloxy)-3-fluorobenzamide] cannot be ordered by EC50: < 1 µM for the first, < 1 µM for the second.

O=C(NC1CCN(Cc2ccc(Cl)cc2)CC1)c1ccc(OC2CCN(Cc3ccc(F)c(F)c3)CC2)c(F)c1 [Compound 71, N-(1-(4-chlorobenzyl)piperidin-4-yl)-4-(1-(3,4-difluorobenzyl)piperidin-4-yloxy)-3-fluorobenzamide] and O=C(NC1CCN(Cc2ccc(Cl)cc2)CC1)c1ccc(OC2CCN(Cc3ccc(Cl)c(Cl)c3)CC2)c(F)c1 [Compound 80, N-(1-(4-chlorobenzyl)piperidin-4-yl)-4-(1-(3,4-dichlorobenzyl)piperidin-4-yloxy)-3-fluorobenzamide] cannot be ordered by EC50: < 1 µM for the first, < 1 µM for the second.

Cc1ccc(CN2CCC(Oc3ccc(C(=O)NC4CCN(Cc5ccc(Cl)cc5)CC4)cc3F)CC2)cc1 [Compound 73, N-(1-(4-chlorobenzyl)piperidin-4-yl)-3-fluoro-4-(1-(4-methylbenzyl)piperidin-4-yloxy)benzamide] and N#Cc1ccc(N2CCC(Oc3ccc(C(=O)NC4CCN(Cc5ccc(Cl)cc5)CC4)cc3F)CC2)cc1 [Compound 81, N-(1-(4-chlorobenzyl)piperidin-4-yl)-4-(1-(4-cyanophenyl)piperidin-4-yloxy)-3-fluorobenzamide] cannot be ordered by EC50: < 1 µM for the first, < 1 µM for the second.

O=C(NC1CCN(Cc2ccccc2)CC1)c1cc(Cl)c(OC2CCN(Cc3ccc(Cl)cc3)CC2)c(Cl)c1 [Compound 75, N-(1-benzylpiperidin-4-yl)-3,5-dichloro-4-(1-(4-chlorobenzyl)piperidin-4-yloxy)benzamide] and O=C(NC1CCN(Cc2ccccc2)CC1)c1cc(Cl)c(OC2CCN(Cc3ccc(F)c(F)c3)CC2)c(Cl)c1 [Compound 76, N-(1-benzylpiperidin-4-yl)-3,5-dichloro-4-(1-(3,4-difluorobenzyl)piperidin-4-yloxy)benzamide] cannot be ordered by EC50: < 1 µM for the first, < 1 µM for the second.

Compared with CC(C)(C)OC(=O)N1CCC(NC(=O)c2ccc(OC3CCN(Cc4ccc(C#N)cc4)CC3)cc2)CC1 [Compound 78, tert-butyl 4-(4-(1-(4-cyanobenzyl)piperidin-4-yloxy)benzamido)piperidine-1-carboxylate], N#Cc1ccc(CN2CCC(Oc3ccc(C(=O)NC4CCNCC4)cc3)CC2)cc1 [Compound 79, 4-(1-(4-cyanobenzyl)piperidin-4-yloxy)-N-(piperidin-4-yl)benzamide] is higher in EC50: < 1 µM for the first, > 100 µM for the second.

O=C(NC1CCN(Cc2ccccc2)CC1)c1ccc(OC2CCN(Cc3ccc(Cl)c(Cl)c3)CC2)c(F)c1 [Compound 82, N-(1-benzylpiperidin-4-yl)-4-(1-(3,4-dichlorobenzyl)piperidin-4-yloxy)-3-fluorobenzamide] and O=C(NC1CCN(Cc2ccccc2)CC1)c1ccc(OC2CCN(Cc3ccc(Cl)c(Cl)c3)CC2)c(Cl)c1 [Compound 84, N-(1-benzylpiperidin-4-yl)-3-chloro-4-(1-(3,4-dichlorobenzyl)piperidin-4-yloxy)benzamide] cannot be ordered by EC50: < 1 µM for the first, < 1 µM for the second.

N#Cc1ccc(CN2CCC(Oc3ccc(C(=O)NC4CCN(Cc5ccncc5)CC4)cc3)CC2)cc1 [Compound 83, 4-(1-(4-cyanobenzyl)piperidin-4-yloxy)-N-(1-(pyridin-4-ylmethyl)piperidin-4-yl)benzamide] and N#Cc1ccc(CN2CCC(Oc3ccc(C(=O)NC4CCN(Cc5ccccn5)CC4)cc3)CC2)cc1 [Compound 85, 4-(1-(4-cyanobenzyl)piperidin-4-yloxy)-N-(1-(pyridin-2-ylmethyl)piperidin-4-yl)benzamide] cannot be ordered by EC50: < 1 µM for the first, < 1 µM for the second.

First: O=C(NC1CCN(Cc2ccccc2)CC1)c1cccc(OC2CCN(c3ccccn3)CC2)c1 [Compound 86, N-(1-benzylpiperidin-4-yl)-3-(1-(pyridin-2-yl)piperidin-4-yloxy)benzamide]
Second: N#Cc1cccc(CN2CCC(Oc3cccc(C(=O)NC4CCN(Cc5ccccc5)CC4)c3)CC2)c1 [Compound 89, N-(1-benzylpiperidin-4-yl)-3-(1-(3-cyanobenzyl)piperidin-4-yloxy)benzamide]
The EC50 of the first is lower: < 1 µM for the first, 1 to 10 µM for the second.

First: O=C(NC1CCN(Cc2ccncc2)CC1)c1cccc(OC2CCN(c3ccc(C(F)(F)F)cc3)CC2)c1 [Compound 87, N-(1-(pyridin-4-ylmethyl)piperidin-4-yl)-3-(1-(4-(trifluoromethyl)phenyl)piperidin-4-yloxy)benzamide]
Second: N#Cc1ccc(N2CCC(Oc3cccc(C(=O)NC4CCN(Cc5ccncc5)CC4)c3)CC2)cc1 [Compound 88, N-(1-(pyridin-4-ylmethyl)piperidin-4-yl)-3-(1-(4-cyanophenyl)piperidin-4-yloxy)benzamide]
The EC50 of the first is lower: < 1 µM for the first, 1 to 10 µM for the second.

CC(C)(C)OC(=O)N1CCC(Oc2ccc(C(=O)NC3CCN(Cc4ccccc4)CC3)cc2Cl)CC1 [Compound 90, tert-butyl 4-(4-(1-benzylpiperidin-4-ylcarbamoyl)-2-chlorophenoxy)piperidine-1-carboxylate] and CC(C)(C)OC(=O)N1CCC(Oc2ccc(C(=O)NC3CCN(Cc4ccccc4)CC3)cc2F)CC1 [Compound 92, tert-butyl 4-(4-(1-benzylpiperidin-4-ylcarbamoyl)-2-fluorophenoxy)piperidine-1-carboxylate] fall in the same range of EC50: 1 to 10 µM for the first, 1 to 10 µM for the second.

Going from CC(C)(C)C(=O)N1CCC(Oc2ccc(C(=O)NC3CCN(Cc4ccccc4)CC3)cc2Cl)CC1 [Compound 91, N-(1-benzylpiperidin-4-yl)-3-chloro-4-(1-pivaloylpiperidin-4-yloxy)benzamide] to O=C(NC1CCN(Cc2ccccc2)CC1)c1ccc(OC2CCNCC2)c(Cl)c1 [Compound 93, N-(1-benzylpiperidin-4-yl)-3-chloro-4-(piperidin-4-yloxy)benzamide], the EC50 rises from < 1 µM to > 100 µM.

COc1ccc(CN2CCC(Oc3ccc(C(=O)N4CCN(C(=O)OC(C)(C)C)CC4)cc3)CC2)cc1 [Compound 96, tert-butyl 4-(4-(1-(4-methoxybenzyl)piperidin-4-yloxy)benzoyl)piperazine-1-carboxylate] and CC(C)(C)OC(=O)N1CCN(C(=O)c2ccc(OC3CCN(Cc4ccccc4)CC3)cc2)CC1 [Compound 99, tert-butyl 4-(4-(1-benzylpiperidin-4-yloxy)benzoyl)piperazine-1-carboxylate] fall in the same range of EC50: 1 to 10 µM for the first, 1 to 10 µM for the second.

First: COc1ccc(CN2CCC(Oc3ccc(C(=O)NCCCNC(=O)OC(C)(C)C)cc3Cl)CC2)cc1 [Compound 97, tert-butyl 3-(3-chloro-4-(1-(4-methoxybenzyl)piperidin-4-yloxy)benzamido)propylcarbamate]
Second: CC(C)(C)OC(=O)NCCCNC(=O)c1ccc(OC2CCN(Cc3ccccc3)CC2)c(Cl)c1 [Compound 102, tert-butyl 3-(4-(1-benzylpiperidin-4-yloxy)-3-chlorobenzamido)propylcarbamate]
The EC50 of the first is lower: 1 to 10 µM for the first, 10 to 20 µM for the second.

First: COc1cc(C(=O)NCCCN2CCOCC2)ccc1OC1CCN(Cc2ccc(Cl)cc2)CC1 [Compound 98]
Second: COc1ccc(CN2CCC(Oc3ccc(C(=O)NCCCN4CCOCC4)cc3Cl)CC2)cc1 [Compound 101, 3-chloro-4-(1-(4-methoxybenzyl)piperidin-4-yloxy)-N-(3-morpholinopropyl)benzamide]
The EC50 of the first is lower: 1 to 10 µM for the first, 10 to 20 µM for the second.

First: O=C(NCCCN1CCOCC1)c1ccc(OC2CCN(Cc3ccc(Cl)cc3)CC2)cc1 [Compound 100, 4-(1-(4-chlorobenzyl)piperidin-4-yloxy)-N-(3-morpholinopropyl)benzamide]
Second: Cc1ccc(CN2CCC(Oc3ccc(C(=O)NCCCN4CCOCC4)cc3)CC2)cc1 [Compound 104, 4-(1-(4-methylbenzyl)piperidin-4-yloxy)-N-(3-morpholinopropyl)benzamide]
The EC50 of the first is lower: 1 to 10 µM for the first, 10 to 20 µM for the second. The first is the more potent here.

For O=C(c1ccc(OC2CCN(Cc3ccccc3)CC2)cc1)N1CCN(c2ccccc2)CC1 [Compound 103, (4-(1-benzylpiperidin-4-yloxy)phenyl)(4-phenylpiperazin-1-yl)methanone], the EC50 was 20 to 50 µM.
